Data: patent US20120208781A1, “AMINOGLYCOSIDE DOSING REGIMENS” (Achaogen, Inc., priority 2009, published 2012)
Values after ≈ are worked out from the molar mass of the structure shown. Values joined by “and” are separate entries in the source; they are usually repeats but may differ in a detail not shown here. Equal values may be shown once. Read-outs that look alike come from different tables or passages of the source.

What was measured:
Enterobacteriaceae (ENT) = assay: MIC, CLSI broth microdilution, worldwide isolates: Enterobacteriaceae; assay type: cell-based
Description: (§1) In the first study, a total of 235 isolates were collected from medical centers worldwide and tested for susceptibility to Compound 1 and comparator agents by CLSI broth microdilution methods. […] Non-ENT GN pathogens included WT P. aeruginosa (PSA) and Acinetobacter spp. (ACB), and carbapenem (CARB)-R strains, including those with MBL and OXA enzymes, SA and coagulase-negative staphylococci (CoNS) included oxacillin-susceptible (MSSA/MS-CoNS) and —R (MRSA/MR-CoNS) strains.
(§2) Minimum inhibitory concentrations (MIC) were determined by reference Clinical and Laboratory Standards Institute (CLSI) broth microdilution methods per M7-A7 [2006]. Briefly, serial two-fold dilutions of Compound 1 and comparator AGs (together, “the test compounds”) were prepared at 2× concentration in appropriate diluent. The dilutions were mixed in 96-well assay plates with bacterial inoculum. Bacteria were suspended in sterile saline and added to each assay plate to obtain a final concentration of 5.5×10^5 CFU/mL. The plates were incubated at 35° C. for 20 hours in ambient air. […] After incubation, assay plates were read using a microtiter plate reader at 600 nm.

[1] = Urine concentration analysis / urinary recovery of Compound 1 in beagle dogs; assay type: in vivo; details: 10 mg/kg IV; for % of Cmpd 1 recovered in urine: 24 hours; for concentration at 6 h / concentration at 12 h / concentration at 24 h: male, beagle, dog, urine, iv, read-out: Cmpd 1 urine concentration
Procedure: Male CD-1 mice, Sprague Dawley rats, and beagle dogs were administered Compound 1 intravenously. Compound 1 was preformulated as a sterile isotonic solution of 10 mg/mL in PBS. Specifically, male CD-1 mice were administered a single bolus IV injection of the Compound at 10 mg/kg, via a bolus IV injection into the tail vein. Two blood samples per mouse were collected by retro-orbital puncture into tubes containing the anticoagulant K2EDTA prior to dosing and at 0.033, 0.083, 0.25, 0.5, 1 and 24 hours. Rats were administered Compound 1 at 10 mg/kg via a bolus IV injection into the tail vein. Twelve blood samples per rat were collected via a jugular vein cannula into tubes containing the anticoagulant K2EDTA at various timepoints (i.e., 0.033, 0.083, 0.25, 0.5, 1, 2, 4, 6, 8, 10, 12, and 24 hours). Male beagle dogs were administered Compound 1 at 10 mg/kg through a temporary percutaneous catheter placed in a peripheral vein. Whole blood samples (0.5 mL) were collected from each dog prior to dosing and at 0.033, 0.083, 0.25, 0.5, 1, 2, 4, 6, 8, and 24 hours via direct venipuncture of a jugular or cephalic vein into tubes containing the anticoagulant K2EDTA. A sparse sampling method was employed to conserve animals and provide the best data possible from fewer mice. Samples were centrifuged, and plasma was collected and transferred into a new tube and frozen at −80° C. until they were analyzed.
Blood, urine, and kidney samples collected over 24 hours were analyzed for Compound 1 levels using LC-MS/MS. Method performance was acceptable in the concentration ranges necessary to determine plasma levels. Compound 1 plasma concentrations were determined by comparing Compound 1 concentration in the sample to a standard curve derived from LC-MS/MS measurements of the analyte. The standard curve fit was linear with a 1/x^2 weighting.

[2] = system: 5 major human cytochrome P450 isoforms (CYPs); assay: Inhibition of cytochrome P450 isoforms in vitro; assay type: in vitro ADME
[3] = system: coagulase-negative staphylococci (CoNS); assay: MIC, CLSI broth microdilution, worldwide isolates: coagulase-negative staphylococci; assay type: cell-based
Description: as §1, §2

[4] = First-in-human phase 1 study: urine levels of Compound 1; assay type: in vivo; details: Cohort 4 (15 mg/kg)
Procedure: Pooled urine samples for PK analysis were obtained with the single dose and first and last multiple-dose.
The levels of Compound 1 present in the urine of Cohort 4 patients during the 24 hours following administration of the third multi-dose was also examined. […] Perhaps of even greater significance, the concentration of Compound 1 achieved in the urine was at least 1 mg/ml immediately following administration, and remained over 0.1 mg/ml for 12 hours.

[5] = GLP 14-day repeat-dose safety study in rat; assay type: in vivo
Description: The Food and Drug Administration (FDA) has provided general guidance for estimating the maximum recommended starting dose (MRSD) for initial human clinical trials. The guidance states that the MRSD must be derived from the no observable adverse effect level (NOAEL) obtained in Good Laboratory Practice (GLP) nonclinical animal safety studies. The NOAEL for Compound 1 has been determined in GLP 14-day repeat-dose safety studies in both rat and dog. Estimation of the human equivalent dose (HED) at the NOAEL is based on both a surface area conversion factor (SACF) and the data from these studies. Based on this standard methodology, the HED for the predicted NOAEL in each species has been determined and is presented in Table 18.

[6] = Enterobacteriaceae, KPC, NMC, SME (15)

SMILES: CN[C@@H]1[C@@H](O)[C@@H](O[C@@H]2[C@@H](O)[C@H](O[C@H]3OC(CNCCO)=CC[C@H]3N)[C@@H](N)C[C@H]2NC(=O)[C@@H](O)CCN)OC[C@]1(C)O [Compound 1, 6′-(2-Hydroxy-ethyl)-1-(4-amino-2(S)-hydroxy-butyryl)-sisomicin]
- MIC50 (Enterobacteriaceae (ENT)): ≤ 0.25 µg/mL
- MIC90 (Enterobacteriaceae (ENT)): 2 µg/mL (≈ 3.37 µM)
- Cumulative % inhibited at Cmpd. MIC 1 (Enterobacteriaceae (ENT); Enterobacteriaceae (125)): 80.0%
- Cumulative % inhibited at Cmpd. MIC 2 (Enterobacteriaceae (ENT); Enterobacteriaceae (125)): 92.0%
- Cumulative % inhibited at Cmpd. MIC 4 (Enterobacteriaceae (ENT); Enterobacteriaceae (125)): 98.4%
- Cumulative % inhibited at Cmpd. MIC 8 (Enterobacteriaceae (ENT); Enterobacteriaceae (125)): 98.4%
- Cumulative % inhibited at Cmpd. MIC 16 (Enterobacteriaceae (ENT); Enterobacteriaceae (125)): 98.4%
- Cumulative % inhibited at Cmpd. MIC 32 (Enterobacteriaceae (ENT); Enterobacteriaceae (125)): 98.4%
- Cumulative % inhibited at Cmpd. MIC 64 (Enterobacteriaceae (ENT); Enterobacteriaceae (125)): 98.4%
- Cumulative % inhibited at Cmpd. MIC >64 (Enterobacteriaceae (ENT); Enterobacteriaceae (125)): 100.0%
- Cumulative % inhibited at Cmpd. MIC ≦0.5 (Enterobacteriaceae (ENT); Enterobacteriaceae (125)): 56.0%
- Cumulative % inhibited at Cmpd. MIC 1 (Enterobacteriaceae (ENT); Enterobacteriaceae, AmpC (20)): 85.0%
- Cumulative % inhibited at Cmpd. MIC 2 (Enterobacteriaceae (ENT); Enterobacteriaceae, AmpC (20)): 95.0%
- Cumulative % inhibited at Cmpd. MIC 4 (Enterobacteriaceae (ENT); Enterobacteriaceae, AmpC (20)): 95.0%
- Cumulative % inhibited at Cmpd. MIC 8 (Enterobacteriaceae (ENT); Enterobacteriaceae, AmpC (20)): 95.0%
- Cumulative % inhibited at Cmpd. MIC 16 (Enterobacteriaceae (ENT); Enterobacteriaceae, AmpC (20)): 95.0%
- Cumulative % inhibited at Cmpd. MIC 32 (Enterobacteriaceae (ENT); Enterobacteriaceae, AmpC (20)): 95.0%
- Cumulative % inhibited at Cmpd. MIC 64 (Enterobacteriaceae (ENT); Enterobacteriaceae, AmpC (20)): 95.0%
- Cumulative % inhibited at Cmpd. MIC >64 (Enterobacteriaceae (ENT); Enterobacteriaceae, AmpC (20)): 100.0%
- Cumulative % inhibited at Cmpd. MIC ≦0.5 (Enterobacteriaceae (ENT); Enterobacteriaceae, AmpC (20)): 75.0%
- Cumulative % inhibited at Cmpd. MIC 1 (Enterobacteriaceae (ENT); Enterobacteriaceae, ESBL (20)): 90.0%
- Cumulative % inhibited at Cmpd. MIC 2 (Enterobacteriaceae (ENT); Enterobacteriaceae, ESBL (20)): 95.0%
- Cumulative % inhibited at Cmpd. MIC 4 (Enterobacteriaceae (ENT); Enterobacteriaceae, ESBL (20)): 95.0%
- Cumulative % inhibited at Cmpd. MIC 8 (Enterobacteriaceae (ENT); Enterobacteriaceae, ESBL (20)): 95.0%
- Cumulative % inhibited at Cmpd. MIC 16 (Enterobacteriaceae (ENT); Enterobacteriaceae, ESBL (20)): 95.0%
- Cumulative % inhibited at Cmpd. MIC 32 (Enterobacteriaceae (ENT); Enterobacteriaceae, ESBL (20)): 95.0%
- Cumulative % inhibited at Cmpd. MIC 64 (Enterobacteriaceae (ENT); Enterobacteriaceae, ESBL (20)): 95.0%
- Cumulative % inhibited at Cmpd. MIC >64 (Enterobacteriaceae (ENT); Enterobacteriaceae, ESBL (20)): 100.0%
- Cumulative % inhibited at Cmpd. MIC ≦0.5 (Enterobacteriaceae (ENT); Enterobacteriaceae, ESBL (20)): 65.0%
- Cumulative % inhibited at Cmpd. MIC 1 (Enterobacteriaceae (ENT); [6]): 100.0%
- Cumulative % inhibited at Cmpd. MIC ≦0.5 (Enterobacteriaceae (ENT); [6]): 60.0%
- Cumulative % inhibited at Cmpd. MIC 1 (Enterobacteriaceae (ENT); Enterobacteriaceae, MBL (10)): 80.0%
- Cumulative % inhibited at Cmpd. MIC 2 (Enterobacteriaceae (ENT); Enterobacteriaceae, MBL (10)): 90.0%
- Cumulative % inhibited at Cmpd. MIC 4 (Enterobacteriaceae (ENT); Enterobacteriaceae, MBL (10)): 100.0%
- Cumulative % inhibited at Cmpd. MIC ≦0.5 (Enterobacteriaceae (ENT); Enterobacteriaceae, MBL (10)): 80.0%
- Cumulative % inhibited at Cmpd. MIC 1 (Enterobacteriaceae (ENT); Enterobacteriaceae, WT (60)): 70.0%
- Cumulative % inhibited at Cmpd. MIC 2 (Enterobacteriaceae (ENT); Enterobacteriaceae, WT (60)): 88.3%
- Cumulative % inhibited at Cmpd. MIC 4 (Enterobacteriaceae (ENT); Enterobacteriaceae, WT (60)): 100.0%
- Cumulative % inhibited at Cmpd. MIC ≦0.5 (Enterobacteriaceae (ENT); Enterobacteriaceae, WT (60)): 41.7%
- % of Cmpd 1 recovered in urine ([1]; Dog 6001): 134%
- % of Cmpd 1 recovered in urine ([1]; Dog 6002): 135%
- % of Cmpd 1 recovered in urine ([1]; Dog 6003): 87%
- % of Cmpd 1 recovered in urine ([1]; Mean (±SD), 10 mg/kg): 119% and 119 ± 22%
- Cmpd 1 urine concentration ([1]; Dog 6001, Total): 1070 µg/mL
- Cmpd 1 urine concentration ([1]; Dog 6002, Total): 573 µg/mL
- Cmpd 1 urine concentration ([1]; Dog 6003, 6 hr): 1180 µg/mL
- Cmpd 1 urine concentration ([1]; Dog 6003, Total): 1324 µg/mL
- concentration at 6 h ([1]; 10 mg/kg, Dog 6001, 6 hr): 1000 µg/mL
- concentration at 12 h ([1]; 10 mg/kg, Dog 6001, 12 hr): 47 µg/mL
- concentration at 24 h ([1]; 10 mg/kg, Dog 6001, 24 hr): 24000 ng/mL
- concentration at 6 h ([1]; 10 mg/kg, Dog 6002, 6 hr): 505 µg/mL
- concentration at 24 h ([1]; 10 mg/kg, Dog 6002, 24 hr): 68000 ng/mL
- concentration at 12 h ([1]; 10 mg/kg, Dog 6003, 12 hr): 100 µg/mL
- concentration at 24 h ([1]; 10 mg/kg, Dog 6003, 24 hr): 44000 ng/mL
- inhibition of the 5 major human CYPs [2]: did not inhibit
- MIC50 ([3]; CONS isolates): ≤ 0.25 µg/mL
- MIC90 ([3]; CONS isolates): ≤ 0.25 µg/mL
- Cumulative % inhibited at Cmpd. MIC ≦0.5 ([3]; CoNS (20)): 100.0%
- urine concentration immediately following administration [4]: at least 1 mg/ml
- urine concentration maintained for 12 hours [4]: over 0.1 mg/ml
- administered Compound 1 excreted within 24 hours (upper estimate) ([4]; after third multi-dose): about 90%
- average fraction excreted in urine in an unchanged form over 24 hours ([4]; after third multi-dose): 75%
- HED ([5]; from rat NOAEL, SACF 6.2): 1.3 mg/kg
- new toxicities ([5]; nonclinical GLP safety studies in rats): no new toxicities apart from those already known to the class
- NOAEL at 14 days ([5]; rat, in vivo): 8 mg/kg
